PubChem BioAssay (NCI)
“And” between values parts separate entries of the source, which are not always exact repeats. Equal values may be shown once.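 Method: 48-hour compound exposure of cells in 96-well plates, five concentrations, linear interpolation of endpoints. Here, GI50 denotes the concentration required for 50% inhibition of growth. TGI marks complete inhibition of growth.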

Experiments:
Experiment in all cases: NCI anticancer screen, dose series, 48 h
[1] = system: HCC-2998 colon
[2] = system: HOP-62 NSCLC
[3] = system: NCI-H460 lung
[4] = system: OVCAR-8 ovarian
[5] = system: HL-60(TB) leukemia
[6] = system: HT29 colon
[7] = system: 786-0 renal
[8] = system: EKVX NSCLC
[9] = system: NCI-H226 lung
[10] = system: NCI-H522 lung

Row | Structure (SMILES) | TGI [1] | TGI [2] [µM] | TGI [3] | TGI [4] [µM] | TGI [5] | TGI [6] | TGI [7] [µM] | TGI [8] [µM] | GI50 [1] | GI50 [2] | GI50 [3] | GI50 [4] | GI50 [6] | GI50 [7] | GI50 [8] [µM] | GI50 [9] | TGI [9] [µM] | GI50 [10] | TGI [10] [µM] | GI50 [5]
1 | CCOP(=O)(OCC)C1CCCOC1=O (stereo not drawn) | > 100 µM | > 100 | > 100 µM | > 100 | > 100 µM | > 100 µM | > 100 | > 100 | – | – | – | – | – | – | – | – | – | – | – | –
2 | C[CH2][Ge]([CH2]C)([CH2]C)[O]C(=O)C(OC(C)=O)c1ccccc1 (stereo not drawn) | > 100 µM | > 100 | > 100 µM | > 100 | – | > 100 µM | > 100 | > 100 | > 100 µM | > 100 µM | > 100 µM | > 100 µM | > 100 µM | > 100 µM | 38.3 | > 100 µM | > 100 | > 100 µM | > 100 | –
3 | N#C/C(=C/c1ccc2c(c1)OCO2)C(=O)c1ccccc1 | > 100 µM | > 100 | > 100 µM | > 100 | – | > 100 µM | > 100 | > 100 | – | – | – | – | – | – | – | – | – | – | > 100 | –
4 | O=C(Nc1ccccc1)Nc1ccc2cc3ccc(NC(=O)Nc4ccccc4)cc3nc2c1 | 1.91 µM | 3.4 | > 100 µM | 2.78 | – | 3.73 µM | 3.34 | > 100 | 0.556 µM | 1.59 µM | 3.95 µM | 1.15 µM | 1.89 µM | 1.64 µM | 4.29 | 1.71 µM | 4.15 | 1.6 µM | 3.35 | –
5 | COC(=O)c1ccc(CN2C(=O)C(Cl)=C(Nc3cccc(Cl)c3C)C2=O)cc1 | 67.5 µM | > 100 | > 100 µM | > 100 | – | > 100 µM | 51.5 | > 100 | 32.5 µM | 14.2 µM | 34.5 µM | 37.2 µM | 4.85 µM | 15.6 µM | 46.8 | 11 µM | > 100 | 3.51 µM | 20.8 | –
6 | CCCCCCCCCCCCCCCCCCn1cc[n+](C)c1 | 1.26 µM and 0.913 µM | – | 1.8 µM and 2.11 µM | – | 0.336 µM and 1.67 µM | 1.64 µM and 1.45 µM | 3.32 | – | 0.303 µM and 0.192 µM | – | 0.521 µM and 0.659 µM | – | 0.403 µM and 0.358 µM | 0.952 µM | – | – | – | – | – | 0.143 µM and 0.293 µM
7 | O=C1C=CC=C/C1=C1/SC(c2ccccc2)=C(O)N1c1ccccc1 | > 100 µM | – | – | > 100 | – | > 100 µM | > 100 | > 100 | – | – | – | – | – | – | – | – | > 100 | – | > 100 | –
8 | C=C/C=C/[C@@H](O)CC(=C)C[C@H]1OC2[C@H](C)[C@@H](OC(=O)C[C@H]3C[C@H](OC(C)=O)C[C@@]4(C[C@@](C)(O)C[C@H](CC(=C)[C@@H](C)[C@H](OC(C)=O)[C@H](C)C(=O)C[C@@H]5C[C@H](OC)CC6(C[C@@H](O)C[C@H](/C=C\CCC[C@H]7O[C@](O)(C=C[C@H]7C)[C@H]2O)O6)O5)O4)O3)[C@@H]1O | 0.00272 µM and < 0.0025 µM | > 25 | 0.00529 µM | – | – | – | > 25 | > 25 | 0.000591 µM and < 0.0025 µM | 0.000252 µM and 0.0025 µM | 0.000798 µM and 0.0025 µM | 0.00053 µM and 0.0025 µM | 0.0025 µM | 0.000572 µM and 0.0025 µM | – | 0.000503 µM and 0.0025 µM | – | 0.000825 µM and < 0.0025 µM | < 0.0025 | –
9 | COc1ccc(-c2nc(-c3ccc(C)cc3)cn3ccnc23)cc1 | > 50 µM | > 50 | 20.1 µM | > 5 | > 50 µM | – | 45.6 | > 50 | 11.8 µM | 13.9 µM | 2.53 µM | > 5 µM | – | 8.6 µM | 4.38 | – | – | – | – | 2.58 µM
10 | CN(c1ccc(C(=O)c2ccc(N(C)S(C)(=O)=O)cc2)cc1)S(C)(=O)=O | – | – | > 100 µM | > 100 | > 100 µM | > 100 µM | > 100 | > 100 | – | – | – | – | – | – | – | – | > 100 | – | > 100 | –
11 | O=C(CCCN1CCC(O)(c2ccc(Cl)cc2)CC1)c1ccc(F)cc1 | – | > 100 | 45.1 µM | > 100 | – | > 100 µM | 39.8 | > 100 | – | – | – | – | – | – | – | – | > 100 | – | 39.5 | –
12 | O=C1N2Cc3c4ccc5c3CN3C(=O)N6Cc7c(ccc(c7CN1C6(c1ccccc1)C23c1ccccc1)OCCOCCNCCOCCO4)OCCOCCNCCOCCO5 (stereo not drawn) | > 100 µM | > 100 | > 100 µM | > 100 | – | > 100 µM | 97.4 | > 100 | – | – | – | – | – | – | – | – | > 100 | – | > 100 | –
13 | NC(=O)c1cc([N+](=O)[O-])c(Cl)c([N+](=O)[O-])c1Cl | 3.45 µM | 3.16 | 3.49 µM | 2.56 | – | 1.05 µM | 2.87 | 4.85 | 1.82 µM | 1.75 µM | 1.74 µM | 1.26 µM | 0.308 µM | 1.44 µM | 2.08 | 1.79 µM | 3.36 | 0.162 µM | 0.319 | –
